34 molecules from PMC6792352, “Limited Chemical Structural Diversity Found to Modulate Thyroid Hormone Receptor in the Tox21 Chemical Library” (Environmental Health Perspectives, 2019) can be followed below.

In general, CC50 refers to the concentration at which the toxic effect on the cells reaches its halfway point. Read a low CC50 as harm at low concentration.

SMILES strings stand for the structures. Where a name gives a salt, the structure may show the parent alone. Bounds are passed on as bounds.

The nature of this data set: in vitro. The note with it: rat, gh3-tre-luc cells.

As for `O=C(O)Cc1ccccc1Oc1ccc(Cl)cc1Cl` [Fenclofenac], where the note is “AC50 (uM) modified / 1000”, the 50% cytotoxic concentration (CC50) at 24 h is over 50 µM.
Still for that read-out and setting: in the case of `O=S(=O)(O)c1ccc2ccccc2c1` [Sodium 2-naphthalenesulfonate] it was over 90 µM; in that of `COC(=O)CCS` [3-Mercaptopropionic acid methyl ester], over 90 µM; in that of `O=C(Nc1ccc(Oc2ccc(Cl)cc2)c(Cl)c1)c1cc(I)cc(I)c1O` [Rafoxanide], 36.2 µM.
On the same count and under the same terms, in the case of `Clc1nc(Cl)c(Cl)c(Cl)c1Cl` [Pentachloropyridine] it was over 90 µM.
As to `CNC(C)=O` [N-Methylacetamide], where the note is “AC50 (uM) modified / 1000”, the CC50 at 24 h is over 90 µM.
Under “AC50 (uM) modified / 1000”, `NC(CS)C(=O)O` (racemic) [DL-Cysteine] had a CC50 at 24 h of over 50 µM.
The same measure, in the same setting: in the case of `CN1C(=O)CN=C(c2ccccc2)c2cc([N+](=O)[O-])ccc21` [Nimetazepam] it was over 50 µM.
Still for that read-out and setting: the same measure for `CC(C)OC(=O)c1ccccc1C(=O)OC(C)C` [Diisopropyl phthalate]: over 90 µM; for `c1coc(-c2nc3ccccc3[nH]2)c1` [Fuberidazole]: over 90 µM.
Take `O=C1C2(Cl)C3(Cl)C4(Cl)C(Cl)(Cl)C5(Cl)C3(Cl)C1(Cl)C5(Cl)C24Cl` (centres unmarked) [Kepone]: the CC50 at 24 h runs as follows: (AC50 (uM) modified / 1000, Tox21_110001=Tox21_201592, viability, 1 nM T3 present, 24 h) 11.6 µM; (AC50 (uM) modified / 1000, Tox21_110001=Tox21_300098, viability, 1 nM T3 present, 24 h) 10.7 µM.
With `CC(CC(=O)Cl)CC(C)(C)C` (centres unmarked) [3,5,5-Trimethylhexanoyl chloride], the CC50 at 24 h (AC50 (uM) modified / 1000) was over 90 µM.
The same measure, in the same setting: the same measure for `CC(C)(C)c1ccc2c(S(=O)(=O)O)c(C(C)(C)C)ccc2c1` [Sodium dibunate]: over 50 µM.
Still for that read-out and setting: in the case of `CCC(C)(C)c1ccc(CC(C)CN2C[C@@H](C)O[C@@H](C)C2)cc1` (some centres unmarked) [Amorolfine] it was 11.1 µM.
On the same count and under the same terms, the same measure for `CCCCOc1ccc(OCCCN2CCOCC2)cc1` [Pramoxine hydrochloride]: over 20 µM.
With `Nc1ccncc1N` [3,4-Diaminopyridine], the half-maximal cytotoxic concentration (CC50) at 24 h (AC50 (uM) modified / 1000) was over 50 µM.
On the same count and under the same terms, in the case of `CCCCCCCCCCC1CO1` (centres unmarked) [1,2-Epoxydodecane] it was over 90 µM; in that of `CCCCCCCCCCCCCCCCCCOP(=O)([O-])OC1CC[N+](C)(C)CC1` [Perifosine], over 20 µM.
Where the note is “AC50 (uM) modified / 1000, Tox21_110001=Tox21_300752, viability, 1 nM T3 present, 24 h”, `CCCSP(=O)(OCC)Oc1ccc(Br)cc1Cl` (centres unmarked) [Profenofos] came in with a half-maximal cytotoxic concentration (CC50) at 24 h of over 50 µM.
As to `C[N@+]12CCCC[C@@H]1CCC(=C(c1cccs1)c1cccs1)C2` (racemic) [Tiquizium bromide], the cytotoxic concentration (CC50) at 24 h (AC50 (uM) modified / 1000) is over 50 µM.
The same measure, in the same setting: the same measure for `C[C@]12C=CC(=O)C=C1CC[C@@H]1[C@@H]2[C@@H](O)C[C@@]2(C)[C@H]1CC[C@]2(O)C(=O)CO` [Prednisolone]: over 90 µM; for `CCCC(C)C` [2-Methylpentane]: over 90 µM.
Still for that read-out and setting: in the case of `CCOc1cc(C=O)ccc1O` [3-Ethoxy-4-hydroxybenzaldehyde] it was over 50 µM.
As to `CCCN(CCC)CCc1c[nH]c2ccccc12` [N,N-Dipropyltryptamine hydrochloride], the CC50 at 24 h (AC50 (uM) modified / 1000, Tox21_110001=Tox21_112893, viability, 1 nM T3 present, 24 h) amounted to 39.8 µM.
Molecule `Cc1cc(O)c(Cl)c(C)c1Cl` [2,4-Dichloro-3,5-dimethylphenol] returned a CC50 at 24 h (AC50 (uM) modified / 1000) of 56.9 µM.
Where the note is “AC50 (uM) modified / 1000, Tox21_110001=Tox21_112865, viability, 1 nM T3 present, 24 h”, `CCN[C@H](C)Cc1cccc(C(F)(F)F)c1` [(-)-Fenfluramine hydrochloride] registered a half-maximal cytotoxic concentration (CC50) at 24 h of 52.7 µM.
On to `Cc1ccc(N)cc1N` [2,4-Diaminotoluene], for which the 50% cytotoxic concentration (CC50) at 24 h (AC50 (uM) modified / 1000) is over 90 µM.
On the same count and under the same terms, in the case of `CC(=O)/C=C/C1=C(C)CCCC1(C)C` [beta-Ionone] it was over 90 µM.
On the same count and under the same terms, in the case of `CC(CO)(CO)[N+](=O)[O-]` [2-Methyl-2-nitro-1,3-propanediol] it was over 90 µM; in that of `CC(=O)OCC(=O)[C@H]1CC[C@H]2[C@@H]3CC[C@H]4C[C@H](O)CC[C@]4(C)[C@H]3C(=O)C[C@]12C` [Alfadolone acetate], over 20 µM.
Where the note is “AC50 (uM) modified / 1000”, `O=C(O)c1ccccc1S` [2-Thiosalicylic acid] registered a 50% cytotoxic concentration (CC50) at 24 h of over 50 µM.
Where the note is “AC50 (uM) modified / 1000”, `C=CC(=O)OC(C)(C)C` [tert-Butyl acrylate] returned a half-maximal cytotoxic concentration (CC50) at 24 h of over 90 µM.
The same measure, in the same setting: in the case of `Oc1ccc2c(c1)-c1ccccc1C2` [3-Hydroxyfluorene] it was over 90 µM; in that of `CCN(CC)CCOCCOC(=O)C1(c2ccccc2)CCCC1` [Carbetapentane], over 50 µM.
